From PubChem BioAssay AID1963434 (Molecular Pharmacology Branch, DTP, NCI, 2024)

Tested on: 755483-174-R-J1-PDC complex spheroid growth, percent test/control
Experiment: Anticancer human tumor 755483-174-R-J1-PDC patient-derived rhabdomyosarcoma cell line growth inhibition [Asc]
Conditions: for IC50: curve of first compound; for viability, T/C: stronger effect = lower value
In short: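 Tumor cells were grown as multicellular spheroids with stromal HUVEC and mesenchymal stem cells and treated singly or in combination. Concentrations fell in half-log steps from the clinical Cmax, or from 10 microM where none was known.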
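Note: spheroids exposed to compounds for seven days before readout.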

NC1CCC(NC2CC2c2ccccc2)CC1 (stereo not given) + CCN1C(C(=O)NC23CCC(C(=O)O)(CC2)CC3)C(c2cccc(Cl)c2F)C2(C(=O)Nc3cc(Cl)ccc32)C12CCCCC2
IC50 (second compound 0.03 µM): > 100 nM
IC50 (second compound 0.0949 µM): > 100 nM
IC50 (second compound 0.3 µM): > 100 nM
IC50 (second compound 0.949 µM): > 100 nM
IC50 (second compound 3 µM): > 100 nM
viability, T/C (second compound 0.03 µM, first compound 0.000316 µM): 93.2%
viability, T/C (second compound 0.03 µM, first compound 0.001 µM): 67.1%
viability, T/C (second compound 0.03 µM, first compound 0.00316 µM): 129%
viability, T/C (second compound 0.03 µM, first compound 0.01 µM): 77.7%
viability, T/C (second compound 0.03 µM, first compound 0.0316 µM): 87%
viability, T/C (second compound 0.03 µM, first compound 0.1 µM): 65.3%
viability, T/C (second compound 0.0949 µM, first compound 0.000316 µM): 90%
viability, T/C (second compound 0.0949 µM, first compound 0.001 µM): 100%
viability, T/C (second compound 0.0949 µM, first compound 0.00316 µM): 93.2%
viability, T/C (second compound 0.0949 µM, first compound 0.01 µM): 96.4%
viability, T/C (second compound 0.0949 µM, first compound 0.0316 µM): 85.1%
viability, T/C (second compound 0.0949 µM, first compound 0.1 µM): 68.8%
viability, T/C (second compound 0.3 µM, first compound 0.000316 µM): 110%
viability, T/C (second compound 0.3 µM, first compound 0.001 µM): 105%
viability, T/C (second compound 0.3 µM, first compound 0.00316 µM): 112%
viability, T/C (second compound 0.3 µM, first compound 0.01 µM): 87.3%
viability, T/C (second compound 0.3 µM, first compound 0.0316 µM): 95.1%
viability, T/C (second compound 0.3 µM, first compound 0.1 µM): 112%
viability, T/C (second compound 0.949 µM, first compound 0.000316 µM): 108%
viability, T/C (second compound 0.949 µM, first compound 0.001 µM): 103%
viability, T/C (second compound 0.949 µM, first compound 0.00316 µM): 92%
viability, T/C (second compound 0.949 µM, first compound 0.01 µM): 98.5%
viability, T/C (second compound 0.949 µM, first compound 0.0316 µM): 78.3%
viability, T/C (second compound 0.949 µM, first compound 0.1 µM): 88.5%
viability, T/C (second compound 3 µM, first compound 0.000316 µM): 92.2%
viability, T/C (second compound 3 µM, first compound 0.001 µM): 94%
viability, T/C (second compound 3 µM, first compound 0.00316 µM): 90.2%
viability, T/C (second compound 3 µM, first compound 0.01 µM): 61.6%
viability, T/C (second compound 3 µM, first compound 0.0316 µM): 86.6%
viability, T/C (second compound 3 µM, first compound 0.1 µM): 88.5%

NC(=O)C(=Cn1cnc(-c2cc(C(F)(F)F)cc(C(F)(F)F)c2)n1)c1cncnc1 + Cc1c(S(C)(=O)=O)c(-c2cc(F)cc(N3CCN(c4ccc(NS(=O)(=O)c5ccc(NC(CCN6CCC(C(=O)OCCCP(=O)(O)O)CC6)CSc6ccccc6)c(S(=O)(=O)C(F)(F)F)c5)cc4)CC3)c2)c(-c2ccc(Cl)cc2)n1C(C)C
IC50 (second compound 0.1 µM): < 0.949 nM
IC50 (second compound 0.316 µM): < 0.949 nM
IC50 (second compound 1 µM): < 0.949 nM
IC50 (second compound 3.16 µM): < 0.949 nM
IC50 (second compound 10 µM): < 0.949 nM
viability, T/C (second compound 0.1 µM, first compound 0.000949 µM): 47.5%
viability, T/C (second compound 0.1 µM, first compound 0.003 µM): 36.2%
viability, T/C (second compound 0.1 µM, first compound 0.00949 µM): 22.7%
viability, T/C (second compound 0.1 µM, first compound 0.03 µM): 6.11%
viability, T/C (second compound 0.1 µM, first compound 0.0949 µM): 16.4%
viability, T/C (second compound 0.1 µM, first compound 0.3 µM): 4.19%
viability, T/C (second compound 0.316 µM, first compound 0.000949 µM): 47%
viability, T/C (second compound 0.316 µM, first compound 0.003 µM): 31.2%
viability, T/C (second compound 0.316 µM, first compound 0.00949 µM): 12.9%
viability, T/C (second compound 0.316 µM, first compound 0.03 µM): 7.11%
viability, T/C (second compound 0.316 µM, first compound 0.0949 µM): 2.26%
viability, T/C (second compound 0.316 µM, first compound 0.3 µM): 1.84%
viability, T/C (second compound 1 µM, first compound 0.000949 µM): 34%
viability, T/C (second compound 1 µM, first compound 0.003 µM): 38.8%
viability, T/C (second compound 1 µM, first compound 0.00949 µM): 13.9%
viability, T/C (second compound 1 µM, first compound 0.03 µM): 7.14%
viability, T/C (second compound 1 µM, first compound 0.0949 µM): 3.61%
viability, T/C (second compound 1 µM, first compound 0.3 µM): 2.25%
viability, T/C (second compound 3.16 µM, first compound 0.000949 µM): 30.6%
viability, T/C (second compound 3.16 µM, first compound 0.003 µM): 25.2%
viability, T/C (second compound 3.16 µM, first compound 0.00949 µM): 14.1%
viability, T/C (second compound 3.16 µM, first compound 0.03 µM): 5.04%
viability, T/C (second compound 3.16 µM, first compound 0.0949 µM): 3%
viability, T/C (second compound 3.16 µM, first compound 0.3 µM): 4.14%
viability, T/C (second compound 10 µM, first compound 0.000949 µM): 24.6%
viability, T/C (second compound 10 µM, first compound 0.003 µM): 33.5%
viability, T/C (second compound 10 µM, first compound 0.00949 µM): 13.9%
viability, T/C (second compound 10 µM, first compound 0.03 µM): 3.72%
viability, T/C (second compound 10 µM, first compound 0.0949 µM): 1.94%
viability, T/C (second compound 10 µM, first compound 0.3 µM): 0.83%

O=C(c1cc(Cc2n[nH]c(=O)c3ccccc23)ccc1F)N1CCN(C(=O)C2CC2)CC1 + Cc1c(S(C)(=O)=O)c(-c2cc(F)cc(N3CCN(c4ccc(NS(=O)(=O)c5ccc(NC(CCN6CCC(C(=O)OCCCP(=O)(O)O)CC6)CSc6ccccc6)c(S(=O)(=O)C(F)(F)F)c5)cc4)CC3)c2)c(-c2ccc(Cl)cc2)n1C(C)C
IC50 (second compound 0.1 µM): < 31.6 nM
IC50 (second compound 0.316 µM): < 31.6 nM
IC50 (second compound 1 µM): < 31.6 nM
IC50 (second compound 3.16 µM): < 31.6 nM
IC50 (second compound 10 µM): < 31.6 nM
viability, T/C (second compound 0.1 µM, first compound 0.0316 µM): 40.4%
viability, T/C (second compound 0.1 µM, first compound 0.1 µM): 35.8%
viability, T/C (second compound 0.1 µM, first compound 0.316 µM): 53%
viability, T/C (second compound 0.1 µM, first compound 1 µM): 47.3%
viability, T/C (second compound 0.1 µM, first compound 3.16 µM): 25.8%
viability, T/C (second compound 0.1 µM, first compound 10 µM): 14.7%
viability, T/C (second compound 0.316 µM, first compound 0.0316 µM): 39.7%
viability, T/C (second compound 0.316 µM, first compound 0.1 µM): 32.4%
viability, T/C (second compound 0.316 µM, first compound 0.316 µM): 28.6%
viability, T/C (second compound 0.316 µM, first compound 1 µM): 25.4%
viability, T/C (second compound 0.316 µM, first compound 3.16 µM): 23.5%
viability, T/C (second compound 0.316 µM, first compound 10 µM): 12.2%
viability, T/C (second compound 1 µM, first compound 0.0316 µM): 32.6%
viability, T/C (second compound 1 µM, first compound 0.1 µM): 38.9%
viability, T/C (second compound 1 µM, first compound 0.316 µM): 24.2%
viability, T/C (second compound 1 µM, first compound 1 µM): 31.6%
viability, T/C (second compound 1 µM, first compound 3.16 µM): 20.4%
viability, T/C (second compound 1 µM, first compound 10 µM): 12.7%
viability, T/C (second compound 3.16 µM, first compound 0.0316 µM): 31%
viability, T/C (second compound 3.16 µM, first compound 0.1 µM): 32.7%
viability, T/C (second compound 3.16 µM, first compound 0.316 µM): 22.9%
viability, T/C (second compound 3.16 µM, first compound 1 µM): 17.6%
viability, T/C (second compound 3.16 µM, first compound 3.16 µM): 14.7%
viability, T/C (second compound 3.16 µM, first compound 10 µM): 8.75%
viability, T/C (second compound 10 µM, first compound 0.0316 µM): 20.1%
viability, T/C (second compound 10 µM, first compound 0.1 µM): 30.2%
viability, T/C (second compound 10 µM, first compound 0.316 µM): 24.1%
viability, T/C (second compound 10 µM, first compound 1 µM): 33.2%
viability, T/C (second compound 10 µM, first compound 3.16 µM): 20.3%
viability, T/C (second compound 10 µM, first compound 10 µM): 9.59%
